Data published in patent US20260285853A1, “COMPOUNDS AND METHODS FOR MODULATING SPLICING” (REMIX THERAPEUTICS INC., priority 2023, published 2026).
Like-named read-outs stand apart in the source and are kept apart here.

Assays:
Assay type in all cases: cell-based
[1] = tested on: HTT mRNA; assay: Splicing RT-qPCR assay (THP), Table 2A
[2] = tested on: MYB mRNA; assay: Splicing RT-qPCR assay (THP), Table 2A
[3] = tested on: HTT mRNA; assay: Gene panel canonical junction qPCR assay, decrease in CJ mRNA, Table 3
In short: (§1)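 Cells: A673 or K562; 24 h compound exposure, 37 °C, 5% CO2; 11-pt 3-fold series from 10 uM final; DMSO ≤0.25%. Lysate → cDNA → qPCR with junction-spanning primers/probe for CJ transcript. ΔCt vs housekeeper, ΔΔCt vs DMSO, 2^(−ΔΔCt), % response, 4PL → IC50.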

[4] = tested on: MYB mRNA; assay: as above
In short: as §1

[5] = tested on: SH-SY5Y (human neuroblastoma) cells; assay: Cell viability, Cell Titer Glo 2.0 assay; settings: read-out: Viability SHSY5Y.3 GI50
In short: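 CellTiter-Glo 2.0 luminescence read-out after 72 h compound exposure (37 °C, 5% CO2); medium-only wells as blank. DMSO 0.1% final.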

[6] = Table 2A (THP), AJ mRNA increase, read-out: HTT AJ (increase in alternative junction mRNA, AC50)
[7] = Table 2A (THP), CJ mRNA decrease, read-out: HTT CJ (decrease in canonical junction mRNA, IC50)
[8] = Table 2A (THP), AJ mRNA increase, read-out: MYB AJ (increase in alternative junction mRNA, AC50)
[9] = Table 2A (THP), CJ mRNA decrease, read-out: MYB CJ (decrease in canonical junction mRNA, IC50)
[10] = decrease in canonical junction (CJ) mRNA, gene panel qPCR, Table 3
[11] = Table 2A, THP, HTT alternative junction (AJ) mRNA, read-out: HTT AJ (AC50, increase in alternative junction mRNA)
[12] = Table 2A, THP, HTT canonical junction (CJ) mRNA, read-out: HTT CJ (IC50, decrease in canonical junction mRNA)
[13] = Table 2A, THP, MYB alternative junction (AJ) mRNA, read-out: MYB AJ (AC50, increase in alternative junction mRNA)
[14] = Table 2A, THP, MYB canonical junction (CJ) mRNA, read-out: MYB CJ (IC50, decrease in canonical junction mRNA)
[15] = decrease in CJ mRNA levels, canonical junction qPCR, gene panel

Structure (SMILES) | AC50 [1, 6] | IC50 [1, 7] | AC50 [2, 8] | IC50 [2, 9] | IC50 [3, 10] | IC50 [4, 10] | GI50 [5] | AC50 [1, 11] | IC50 [1, 12] | AC50 [2, 13] | IC50 [2, 14] | IC50 [3, 15] | IC50 [4, 15]
COc1c(NC(=O)c2ccc(N3CCC(NC4CC4)CC3)c3cn(C)nc23)cn2cc(C)nc(C)c12 [Compound 457, 4-[4-(cyclopropylamino)-1-piperidyl]-N-(8-methoxy-1,3-dimethyl-pyrrolo[1,2-a]pyrazin-7-yl)-2-methyl-indazole-7-carboxamide] | 1 to 10 µM | 1 to 10 µM | 1 to 10 µM | 1 to 10 µM | 1 to 10 µM | 1 to 10 µM | 1 to 10 µM |  |  |  |  |  | 
Cc1cn2cc(NC(=O)c3ccc(N4CCC(NC5CC5)CC4)c4cn(C)nc34)cc(CNS(C)(=O)=O)c2n1 [Compound 816, 4-[4-(cyclopropylamino)-1-piperidyl]-N-[8-(methanesulfonamidomethyl)-2-methyl-imidazo[1,2-a]pyridin-6-yl]-2-methyl-indazole-7-carboxamide] |  |  |  |  |  |  | > 10 µM | > 10 µM | > 10 µM | 1 to 10 µM | 1 to 10 µM | > 10 µM | 1 to 10 µM
COc1nc2c(C(=O)Nc3cc4cn(C)nc4c(F)c3O)ccc(N3C[C@H](C)N[C@@H](C)C3)c2s1 [Compound 761, 7-[(3S,5S)-3,5-dimethylpiperazin-1-yl]-N-(7-fluoro-6-hydroxy-2-methyl-indazol-5-yl)-2-methoxy-1,3-benzothiazole-4-carboxamide] |  |  |  |  |  |  | 1 to 10 µM | > 10 µM | > 10 µM | 0.1 to 1 µM | 0.1 to 1 µM | > 10 µM | 0.1 to 1 µM
CCNC1CCN(c2cc(F)c(C(=O)Nc3cn4cc(C)nc(C#N)c4n3)c3nn(C)cc23)CC1 [Compound 390, N-(8-cyano-6-methyl-imidazo[1,2-a]pyrazin-2-yl)-4-[4-(ethylamino)-1-piperidyl]-6-fluoro-2-methyl-indazole-7-carboxamide] | > 10 µM | > 10 µM | < 0.1 µM | 0.1 to 1 µM | > 10 µM | 0.1 to 1 µM | 1 to 10 µM |  |  |  |  |  | 
COc1nc2c(C(=O)Nc3cc(F)c4nn(C)cc4c3)ccc(N3CC[C@H](NC(C)(C)C)C3)c2s1 [Compound 770] |  |  |  |  |  |  | 0.1 to 1 µM | 0.1 to 1 µM | 0.1 to 1 µM | 0.1 to 1 µM | 0.1 to 1 µM | 0.1 to 1 µM | 0.1 to 1 µM
CCNC1CCN(c2cc(F)c(C(=O)Nc3cc4cn(C)nc4cc3OC)c3nn(C)cc23)CC1 [Compound 387, 4-[4-(ethyl-amino)-1-piperidyl]-6-fluoro-N-(6-methoxy-2-methyl-indazol-5-yl)-2-methyl-indazole-7-carboxamide] | 0.1 to 1 µM | 0.1 to 1 µM | < 0.1 µM | < 0.1 µM | 0.1 to 1 µM | < 0.1 µM | 1 to 10 µM |  |  |  |  |  | 
COc1cc2c(N3C[C@H](C)N[C@@H](C)C3)ccc(C(=O)Nc3cc4cn(C)nc4cc3OC)n2n1 [Compound 698, 4-[(3S,5S)-3,5-dimethylpiperazin-1-yl]-2-methoxy-N-(6-methoxy-2-methyl-indazol-5-yl) pyrazolo[1,5-a]pyridine-7-carboxamide] |  |  |  |  |  |  | 0.1 to 1 µM | 1 to 10 µM | 1 to 10 µM | < 0.1 µM | < 0.1 µM | 1 to 10 µM | < 0.1 µM
COc1nc2c(C(=O)Nc3cc(F)c4nn(C)cc4c3)ccc(N3CCN[C@@H](C(C)C)C3)c2s1 [Compound 732] |  |  |  |  |  |  | 0.1 to 1 µM | > 10 µM | > 10 µM | < 0.1 µM | < 0.1 µM | > 10 µM | < 0.1 µM
Cc1cn2cc(NC(=O)c3ccc(N4CCCC(N)C4)c4cn(C)nc34)nc2c(CNS(C)(=O)=O)n1 (centres unmarked) [Compound 866] |  |  |  |  |  |  | > 10 µM | > 10 µM | > 10 µM | > 10 µM | > 10 µM | > 10 µM | > 10 µM
COc1cc2nn(C)cc2cc1NC(=O)c1ccc(OC2CCNCC2)c2cn(C)nc12 [Compound 566] | 1 to 10 µM | 0.1 to 1 µM | 0.1 to 1 µM | 0.1 to 1 µM | 0.1 to 1 µM | 0.1 to 1 µM | 1 to 10 µM |  |  |  |  |  | 
COc1nc2c(C(=O)Nc3cc(F)c4nc(C)nn4c3)ccc(N3C[C@H](C)N[C@@H](C)C3)c2s1 [Compound 763, 7-[(3S,5S)-3,5-dimethylpiperazin-1-yl]-N-(8-fluoro-2-methyl-[1,2,4]triazolo[1,5-a]pyridin-6-yl)-2-methoxy-1,3-benzothiazole-4-carboxamide] |  |  |  |  |  |  | < 0.1 µM | 0.1 to 1 µM | 1 to 10 µM | < 0.1 µM | < 0.1 µM | 1 to 10 µM | < 0.1 µM
COc1cc2nn(C)cc2cc1NC(=O)c1c(Cl)cc(N2CCC(NC3CC3)CC2)c2cn(C)nc12 [Compound 436, 6-chloro-4-[4-(cyclopropylamino)-1-piperidyl]-N-(6-methoxy-2-methyl-indazol-5-yl)-2-methyl-indazole-7-carboxamide] | > 10 µM | > 10 µM | 0.1 to 1 µM | 0.1 to 1 µM | > 10 µM | 0.1 to 1 µM | 1 to 10 µM |  |  |  |  |  | 
CCNC1CCN(c2ccc(C(=O)Nc3cc(CNS(C)(=O)=O)c4nc(C)cn4c3)c3nn(C)cc23)CC1 [Compound 817, 4-[4-(ethylamino)-1-piperidyl]-N-[8-(methanesulfonamidomethyl)-2-methyl-imidazo[1,2-a]pyridin-6-yl]-2-methyl-indazole-7-carboxamide] |  |  |  |  |  |  | > 10 µM | > 10 µM | > 10 µM | 1 to 10 µM | 1 to 10 µM | > 10 µM | 1 to 10 µM
C[C@H]1CN(c2ccc(C(=O)Nc3cc(F)c4nn(C)cc4c3)c3nc(N)sc23)C[C@H](C)N1 [Compound 700, 2-amino-7-[(3S,5S)-3,5-dimethylpiperazin-1-yl]-N-(7-fluoro-2-methyl-indazol-5-yl)-1,3-benzothiazole-4-carboxamide] |  |  |  |  |  |  | 0.1 to 1 µM | 0.1 to 1 µM | 0.1 to 1 µM | < 0.1 µM | < 0.1 µM | 0.1 to 1 µM | < 0.1 µM
COc1nc2c(C(=O)Nc3cc(CNC(C)=O)c4nn(C)cc4c3)ccc(N3C[C@H](C)N[C@@H](C)C3)c2s1 [Compound 762, N-[7-(acetamidomethyl)-2-methyl-indazol-5-yl]-7-[(3S,5S)-3,5-dimethylpiperazin-1-yl]-2-methoxy-1,3-benzothiazole-4-carboxamide] |  |  |  |  |  |  | 1 to 10 µM | > 10 µM | > 10 µM | < 0.1 µM | < 0.1 µM | > 10 µM | < 0.1 µM
CCNC1CCN(c2ccc(C(=O)Nc3cn4ccnc(CNS(C)(=O)=O)c4n3)c3nn(C)cc23)CC1 [Compound 850] |  |  |  |  |  |  | > 10 µM | > 10 µM | > 10 µM | > 10 µM | > 10 µM | > 10 µM | > 10 µM
CCNC1CCN(c2ncc(C(=O)Nc3cn4cc(C)nc(C)c4n3)c3nn(C)cc23)CC1 [Compound 394, N-(6,8-dimethylimidazo[1,2-a]pyrazin-2-yl)-4-[4-(ethylamino)-1-piperidyl]-2-methyl-pyrazolo-[4,3-c]-pyridine-7-carboxamide] | 1 to 10 µM | 1 to 10 µM | < 0.1 µM | 0.1 to 1 µM | 1 to 10 µM | 0.1 to 1 µM | > 10 µM |  |  |  |  |  | 
CCNC1CCN(c2ccc(C(=O)Nc3cc(C(=O)O)c4nc(C)cn4c3)c3nn(C)cc23)CC1 [Compound 318, 6-[[4-[4-(ethylamino)-1-piperidyl]-2-methyl-indazole-7-carbonyl]amino]-2-methyl-imidazo[1,2-a]pyridine-8-carboxylic acid 2,2,2-trifluoroacetic acid] | > 10 µM | > 10 µM | > 10 µM | > 10 µM | > 10 µM | > 10 µM | > 10 µM |  |  |  |  |  | 
Cn1cc2cc(NC(=O)c3ccc(N4CCC(NC5CC5)CC4)c4cn(C)nc34)cc(CO)c2n1 [Compound 793] |  |  |  |  |  |  | 1 to 10 µM | > 10 µM | > 10 µM | 1 to 10 µM | 1 to 10 µM | > 10 µM | 1 to 10 µM
CCNC1CCN(c2ccc(C(=O)Nc3cn4cc(C)nc(C)c4n3)c3nc(C)cn23)CC1 [Compound 612, N-(6,8-dimethyl-imidazo-[1,2-a]pyrazin-2-y1)-5-[4-(ethylamino)-1-piperidyl]-2-methyl-imidazo[1,2-a]pyridine-8-carboxamide] |  |  |  |  |  |  | 1 to 10 µM | > 10 µM | > 10 µM | 0.1 to 1 µM | 0.1 to 1 µM | > 10 µM | 0.1 to 1 µM
